According to patent US6869913B1, “Pyridazin-3-one derivatives, their use and intermediates for their production” (Sumitomo Chemical Company, Limited, priority 1995, dated 2005):

Key:
Type in all cases: in vivo
[1] = test system: velvetleaf (Abutilon theophrash); assay: Test Example 1: foliar treatment on upland fields; conditions: 500 g/ha active ingredient; foliar spray; examined 19 days after application
Method: (§1) Cylindrical plastic pots of 10 cm in diameter and 10 cm in depth were filled with soil, in which the seeds of […] (Ipomoea hederacea var. integriuscula) and velvetleaf (Abutilon theophrash) were sowed, and the test plants were grown in a greenhouse for 19 days. Each of the test compounds listed below was formulated into an emulsifiable concentrate according to Formulation Example 2, which was diluted with water containing a spreading agent to a prescribed concentration. The dilution was uniformly sprayed over the foliage of the test plants with a sprayer at a volume of 1000 liters per hectare. After the application, the test plants were grown in the greenhouse for 19 days, and the herbicidal activity was examined.

[2] = test system: entireleaf morningglory (Ipomoea hederacea var. integriuscula); assay: Test Example 1: foliar treatment on upland fields; conditions: 500 g/ha active ingredient; foliar spray; examined 19 days after application
Method: as §1

[3] = test system: catchweed bedstraw (Galium aparine); assay: Test Example 6: foliar treatment on upland fields; conditions: 63 g/ha active ingredient; foliar spray; 25 days after application
Excerpt: (§2) The herbicidal activity is excellent when rated at “4” or “5” but insufficient when rated at “3” or lower. The phytotoxicity is no problematic on practical use when rated at “0” or “1” but not allowed when rated at “2” or higher.
(§3) Plastic pots of 16×11 cm^2 in are and 7 cm in depth were filled with soil, in which the seeds of wheat (Triticum aestivum), pale smartweed (Polygonum lapathifolium), catchweed bedstraw (Galium aparine), and common chickweed (Stellaria media) were sowed, and the test plants were grown for 29 days. Each of the test compounds listed below was formulated into an emulsifiable concentrate according to Formulation Example 2, which was diluted with water to a prescribed concentration. The dilution was uniformly sprayed over the foliage of the test plants with a sprayer at a volume of 1000 liters per hectare. At this time, the unfavorable weeds and crop plants, although their growth state was different depending upon the weed species, were at the 1- to 4-leaf stage, and the plant height was 5 to 15 cm. After 25 days from the application, the herbicidal activity and phytotoxicity were examined. This test was made in a greenhouse over the entire period.

[4] = test system: pale smartweed (Polygonum lapathifolium); assay: Test Example 6: foliar treatment on upland fields; conditions: 63 g/ha active ingredient; foliar spray; 25 days after application
Excerpt: as §2, §3

[5] = test system: common chickweed (Stellaria media); assay: Test Example 6: foliar treatment on upland fields; conditions: 63 g/ha active ingredient; foliar spray; 25 days after application
Excerpt: as §2, §3

[6] = test system: barnyardgrass (Echinochloa oryzicola); assay: Test Example 4: flooding treatment on paddy fields; conditions: application amount of active ingredient 250 g/ha, examined 19 days after application, index 0 to 5
Method: Cylindrical plastic pots of 9 cm in diameter and 11 cm in depth were filled with soil, in which the seeds of barnyardgrass (Echinochloa oryzicola) were sowed. These pots were flooded to form a paddy field, and the test plants were grown in a greenhouse for 7 days. Each of the test compounds listed below was formulated into an emulsifiable concentrate according to Formulation Example 2, which was diluted with water to a prescribed concentration. The dilution was applied to the water surface in the pots at a volume of 50 liters per hectare. After the application, the test plants were grown in the greenhouse for 19 days, and the herbicidal activity was examined.

[7] = test system: velvetleaf (Abutilon theophrash); assay: Test Example 3: soil surface treatment on upland fields; conditions: 500 g/ha active ingredient; soil surface spray; examined after 19 days
Method: (§4) Cylindrical plastic pots of 10 cm in diameter and […] in depth were filled with soil, in which the seeds of […] (Ipomoea hederacea var. integriuscula) and velvetleaf (Abutilon theophrash) were sowed. Each of the test compounds listed below was formulated into an emulsifiable concentrate according to Formulation Example 2, which was diluted with water to a prescribed concentration. The dilution was uniformly sprayed over the soil surface in the pots with a sprayer at a volume of 1000 liters per hectare. After the application, the test plants were grown in a greenhouse for 19 days, and the herbicidal activity was examined.

[8] = test system: entireleaf morningglory (Ipomoea hederacea var. integriuscula); assay: as above; conditions: 500 g/ha active ingredient; soil surface spray; examined after 19 days
Method: as §4

[9] = test system: velvetleaf (Abutilon theophrash); assay: Test Example 2: foliar treatment on upland fields; parameters: key: rating; 4–5 = excellent activity, 3 or lower = insufficient; conditions: 32 g/ha active ingredient; foliar spray; examined 19 days after application
Excerpt: as §2
(§5) Cylindrical plastic pots of 10 cm in diameter and 10 cm in depth were filled with soil, in which the seeds of barnyardgrass (Echinochloa crus-galli), entireleaf morningglory (Ipomoea hederacea var. integriuscula) and velvetleaf (Abutilon theophrash) were sowed, and the test plants were grown in a greenhouse for 19 days. Each of the test compounds listed below was formulated into an emulsifiable concentrate according to Formulation Example 2, which was diluted with water containing a spreading agent to a prescribed concentration. The dilution was uniformly sprayed over the foliage of the test plants with a sprayer at a volume of 1000 liters per hectare. After the application, the test plants were grown in the greenhouse for 19 days, and the herbicidal activity was examined.

[10] = test system: entireleaf morningglory (Ipomoea hederacea var. integriuscula); assay: Test Example 2: foliar treatment on upland fields; parameters: key: rating; 4–5 = excellent activity, 3 or lower = insufficient; conditions: 32 g/ha active ingredient; foliar spray; examined 19 days after application
Excerpt: as §2, §5

[11] = test system: barnyardgrass (Echinochloa crus-galli); assay: Test Example 2: foliar treatment on upland fields; parameters: key: rating; 4–5 = excellent activity, 3 or lower = insufficient; conditions: 32 g/ha active ingredient; foliar spray; examined 19 days after application
Excerpt: as §2, §5

[12] = test system: common lambsquarters (Chenopodium album); assay: Test Example 5: foliar treatment on upland fields; conditions: 63 g/ha active ingredient; foliar spray; 18 days after application
Excerpt: as §2
(§6) Plastic pots of 25×18 cm^2 in area and 7 cm in depth were filled with soil, in which the seeds of soybean (Glycine max), corn (Zea mays), entireleaf morningglory (Ipomoea hederacea var. integriuscula), common cocklebur (Xanthium pensylvanicum), common ragweed (Ambrosia artemisiifolia), and common lambsquarters (Chenopodium album) were sowed, and the test plants were grown for 16 days. Each of the test compounds listed below was formulated into an emulsifiable concentrate according to Formulation Example 2, which was diluted with water to a prescribed concentration. The dilution was uniformly sprayed over the foliage of the test plants with a sprayer at a volume of 1000 liters per hectare. At this time, the unfavorable weeds and crop plants, although their growth state was different depending upon the weed species, were at the 1- to 4-leaf stage, and the plant height was 5 to 20 cm. After 18 days from the application, the herbicidal activity and phytotoxicity were examined. This test was made in a greenhouse over the entire period.

[13] = test system: entireleaf morningglory (Ipomoea hederacea var. integriuscula); assay: Test Example 5: foliar treatment on upland fields; conditions: 63 g/ha active ingredient; foliar spray; 18 days after application
Excerpt: as §2, §6

[14] = test system: common ragweed (Ambrosia artemisiifolia); assay: Test Example 5: foliar treatment on upland fields; conditions: 63 g/ha active ingredient; foliar spray; 18 days after application
Excerpt: as §2, §6

[15] = test system: common cocklebur (Xanthium pensylvanicum); assay: Test Example 5: foliar treatment on upland fields; conditions: 63 g/ha active ingredient; foliar spray; 18 days after application
Excerpt: as §2, §6

[16] = test system: common lambsquarters (Chenopodium album); assay: Test Example 7: soil surface treatment on upland fields; conditions: 63 g/ha active ingredient; soil surface spray; examined after 19 days
Excerpt: as §2
(§7) Plastic pots of 25×18 cm^2 in area and 7 cm in depth were filled with soil, in which the seeds of soybean (Glycine max), corn (Zea mays), common lambsquarters (Chenopodium album), slender amaranth (Amaranthus gracilis), and pale smartweed (Polygonum lapathifolium) were sowed. Each of the test compounds listed below was formulated into an emulsifiable concentrate according to Formulation Example 2, which was diluted with water to a prescribed concentration. The dilution was uniformly sprayed over the soil surface in the pots with a sprayer at a volume of 1000 liters per hectare. After the application, the test plants were grown in a greenhouse for 19 days, and the herbicidal activity and phytotoxicity were examined.

[17] = test system: slender amaranth (Amaranthus gracilis); assay: as above; conditions: 63 g/ha active ingredient; soil surface spray; examined after 19 days
Excerpt: as §2, §7

[18] = test system: pale smartweed (Polygonum lapathifolium); assay: as above; conditions: 63 g/ha active ingredient; soil surface spray; examined after 19 days
Excerpt: as §2, §7

Row | Structure (SMILES) | Herbicidal activity Velvetleaf [1] | Herbicidal activity Entireleaf morningglory [2] | Herbicidal activity and phytotoxicity Catchweed bedstraw [3] | Herbicidal activity and phytotoxicity Pale smartweed [4] | Herbicidal activity and phytotoxicity Common chickweed [5] | Herbicidal activity Barnyardgrass [6] | Herbicidal activity Velvetleaf [7] | Herbicidal activity Entireleaf morningglory [8] | Herbicidal activity Velvetleaf [9] | Herbicidal activity Entireleaf morningglory [10] | Herbicidal activity Barnyardgrass [11] | Herbicidal activity and phytotoxicity Common lambsquarters [12] | Herbicidal activity and phytotoxicity Entireleaf morningglory [13] | Herbicidal activity and phytotoxicity Common ragweed [14] | Herbicidal activity and phytotoxicity Common cocklebur [15] | Herbicidal activity and phytotoxicity Common lambsquarters [16] | Herbicidal activity and phytotoxicity Slender amaranth [17] | Herbicidal activity and phytotoxicity Pale smartweed [18]
1 | C#CCOc1cc(-n2ncc(C(F)(F)F)c(C)c2=O)c(F)cc1Cl [Compound 1-486, 2-(4-Chloro-2-fluoro-5-propargyloxyphenyl)-4-methyl-5-trifluoromethylpyridazin-3-one] | 5 | 5 | 5 | 5 | 5 | 5 | 5 | 5 | 5 | 5 | 4 | – | – | – | – | – | – | –
2 | CCOC(=O)COc1cc(-n2ncc(C(F)(F)F)c(C)c2=O)c(F)cc1Cl [Compound 1-496, Ethyl 2-chloro-4-fluoro-5-(4-methyl-5-trifluoromethyl-3-pyridazinon-2-yl)phenoxyacetate] | 5 | 5 | 5 | 4 | 4 | 5 | 5 | 5 | 5 | 5 | 5 | 5 | 5 | 5 | 5 | – | – | –
3 | CCOC(=O)c1cc(-n2ncc(C(F)(F)F)c(C)c2=O)c(F)cc1Cl [Compound 1-642, Ethyl 2-chloro-4-fluoro-5-(4-methyl-5-trifluoromethyl-3-pyridazinon-2-yl)benzoate] | 5 | 5 | – | – | – | 5 | 5 | 5 | 5 | 5 | 5 | – | – | – | – | 5 | 5 | 5
4 | C#CCN1C(=O)COc2ccc(-n3ncc(C(F)(F)F)c(C)c3=O)cc21 [Compound 2-203, 6-(4-Methyl-5-trifluoromethyl-3-pyridazinon-2-yl)-4-propargyl-2H-1,4-benzoxazin-3-one] | 5 | 5 | – | – | – | 5 | 5 | 5 | 5 | 5 | 4 | – | – | – | – | 5 | 5 | 5
5 | C#CCN1C(=O)COc2cc(F)c(-n3ncc(C(F)(F)F)cc3=O)cc21 [Compound 2-631, 7-Fluoro-6-(5-trifluoromethyl-3-pyridazinon-2-yl)-4-propargyl-2H-1,4-benzoxazin-3-one] | 5 | 5 | – | – | – | 5 | 5 | 5 | 5 | 5 | 5 | – | – | – | – | 5 | 5 | 5
6 | COC(=O)C1(C)Cc2c(c(Cl)cc(F)c2-n2ncc(C(F)(F)F)c(C)c2=O)O1 (stereo not shown) [Compound 4-434] | 5 | 5 | – | – | – | 5 | 5 | 5 | 5 | 5 | 5 | – | – | – | – | – | – | –
